In assay [1] the test system is AMPA. Kind of assay: Cortical wedge model (electrophysiology, rat cortical wedge preparation), AMPA subtype. The following applies: receptor subtype AMPA; for EC50: agonist; for Ki: starred in IC50 column (*) = Ki value). Format: cell-based. On the procedure: (§1) The Cortical wedge model is a test in which slices of rat brain is examined in vitro in order to quantify the effect of ligands at the Glu-receptors and evaluate the pharmacological profile of the ligands (i.e. agonist/antagonist properties). The test was performed as described by Harrison, N.L. and Simmonds, M.A. Br.J. Pharmacol. 1985, 84, 381-391 as modified according to Wheatley, P.L. Br.J.Pharmacol. 1986, 87, 159P.

Assay [2] has as its system NMDA. As to the kind of experiment: Cortical wedge model (electrophysiology, rat cortical wedge preparation), NMDA subtype. Format: cell-based. The following applies: receptor subtype NMDA; for EC50: agonist; for IC50: antagonist. The protocol: as §1
The target of assay [3] is NMDA-receptor. Kind of assay: [3H]CPP binding (displacement of [3H]CPP from the transmitter binding site). A general note: Loss of bound radioactivity is the signal in a displacement assay; it reports binding, not function.
The target of assay [4] is AMPA receptors. Kind of assay: [3H]AMPA binding (displacement of [3H]AMPA, in the presence of KSCN). Conditions: only high affinity binding sites labelled. On the procedure: In this test the affinity of a drug for AMPA receptors is determined by measuring the ability to displace [^3H]AMPA from AMPA receptors.
The test was carried out in accordance with a modified version of the method of Honoré, T. and Nielsen, M., Neurosci.Lett. 1985, 54, 27-32. The test was carried out in the presence of KSCN. This means that only the [^3H]AMPA high affinity binding sites were labelled.
The membrane preparations used were obtained in accordance with the method of Ransom, R.W. and Stec, J.Neurochem. 1988, 51, 830-836.

The test system of assay [5] is KAIN. As to the kind of experiment: Cortical wedge model (electrophysiology, rat cortical wedge preparation), KAIN subtype. Format: cell-based. The following applies: receptor subtype KAIN. On the procedure:
as §1

These results are taken from patent publication EP0994107A1, “5-Arylisoxazol-4-yl-substituted 2-amino carboxylic acid compounds” (H. LUNDBECK A/S, priority 1993, dated 1995).

What is called EC50 is the concentration at which the effect is half-maximal. A low value points to higher potency in that assay. As to `Cc1ccc(-c2onc(O)c2CC(N)C(=O)O)s1` (racemic) [Compound 1f, (RS)-2-Amino-3-[3-hydroxy-5-(5-methyl-2-thienyl)isoxazol-4-yl]propionic Acid], in assay [1], the Profile entry was “Agonist” and the response was half-maximal at 130 µM (EC50).
Consider `NC(Cc1c(O)noc1-c1ccncc1)C(=O)O` (racemic) [Compound 13b, (RS)-2-Amino-3-[3-hydroxy-5-(4-pyridyl)isoxazol-4-yl]propionic Acid], for which, in assay [1], the Profile entry is given as “Agonist” and the EC50 was determined as 7.4 µM.
As for `Nc1c(NCc2c(O)noc2-c2ccsc2)c(=O)c1=O` [Compound 5c, 4-[(2-Amino-3,4-dioxo-1-cyclobuten-1-yl)aminomethyl]-3-hydroxy-5-(3-thienyl)isoxazole], the Profile entry in assay [1] and in assay [2] was “Antagonist” in each case.
For the compound `NC(Cc1c(O)noc1-c1ccc(F)cc1)C(=O)O` (single isomer, unassigned; (+)) [Compound 14d, (+)-2-Amino-3-[5-(4-fluorophenyl)-3-hydroxyisoxazol-4-yl]propionic Acid], in assay [1], the Profile result is listed as “Agonist” and the EC50 stood at 170 µM.
The term IC50 denotes the point on the concentration scale where inhibition reaches its midpoint. As for `NC(C(=O)O)c1c(O)noc1-c1ccccc1` (racemic) [Compound 2a, (RS)-2-Amino-2-(3-hydroxy-5-phenylisoxazol-4-yl)acetic Acid], in assay [3], the IC50 was 7.5 µM. Besides, in assay [2], the Profile result is “Part. Ago.#” and the EC50 was determined as 300 µM. The IC50 in assay [4] is 43 µM.
On to `NC(CCc1c(O)noc1-c1ccccc1)C(=O)O` (racemic) [Compound 4b, (RS)-2-Amino-4-(3-hydroxy-5-phenylisoxazol-4-yl)butanoic Acid], for which the IC50 was 2.5 µM in assay [3], 18 µM in assay [2] and above 100 µM in assay [4]. The Profile result in assay [2] is “Antagonist”.
A word on the Ki: it is a measure of affinity in units of concentration, obtained from inhibition or displacement. Low readings indicate tighter binding, high ones weaker binding. As for `N[C@H](Cc1c(O)noc1-c1ccccc1)C(=O)O` [Compound 14b, (R)-(-)-2-Amino-3-(3-hydroxy-5-phenylisoxazol-4-yl)propionic acid], the Profile result in assay [1] and in assay [5] was “Antagonist” throughout. Also, the Ki in assay [1] amounted to 290 µM; in assay [5] (starred in IC50 column (*) = Ki value)), 950 µM.
Take `Nc1c(NCc2c(O)noc2-c2cccs2)c(=O)c1=O` [Compound 5b, 4-[(2-Amino-3,4-dioxo-1-cyclobuten-1-yl)aminomethyl]-3-hydroxy-5-(2-thienyl)isoxazole]: the half-inhibitory concentration (IC50) in assay [3] turned out to be 6.9 µM; in assay [2] it was 30 µM; in assay [4] it was 38 µM. The Profile result in assay [2] is listed as “Antagonist”.
For `NC(Cc1c(O)noc1-c1ccccn1)C(=O)O` (racemic) [Compound 13a, (RS)-2-Amino-3-[3-hydroxy-5-(2-pyridyl)isoxazol-4-yl)propionic Acid], in assay [1], the Profile entry was “Agonist” and a half-maximal response (EC50) required 55 µM.
Turning to `NC(Cc1c(O)noc1-c1cccs1)C(=O)O` (racemic) [Compound 1a, (RS)-2-Amino-3-[3-hydroxy-5-(2-thienyl)isoxazol-4-yl]propionic Acid], in assay [1], the Profile result is reported as “Agonist” and the response was half-maximal at 5.8 µM (EC50). In addition, in assay [3], the IC50 was above 100 µM. Also, the IC50 in assay [4] turned out to be 0.28 µM.
As for `NC(CCCc1c(O)noc1-c1ccccc1)C(=O)O` (racemic) [Compound 3a, (RS)-2-Amino-5-(3-hydroxy-5-phenylisoxazol-4-yl)pentanoic Acid], the Profile entry in assay [1] is recorded as “Agonist”. For the same compound, the response in assay [1] was half-maximal at 240 µM (EC50). Besides, the IC50 came to 21 µM in assay [3] and 9 µM in assay [4].
For `Nc1c(NCc2c(O)noc2-c2ccccc2)c(=O)c1=O` [Compound 5a, 4-[(2-Amino-3,4-dioxo-1-cyclobuten-1-yl)aminomethyl]-3-hydroxy-5-phenylisoxazole], the Profile result in assay [1], in assay [2] and in assay [5] was “Antagonist” in each case. The IC50 in assay [3] was 22 µM; in assay [4] it was 33 µM.
As to `NC(Cc1c(O)noc1-c1ccsc1)C(=O)O` (racemic) [Compound 1b, (RS)-2-Amino-3-[3-hydroxy-5-(3-thienyl)isoxazol-4-yl]propionic Acid], in assay [1], the Profile entry is “Agonist” and the EC50 was determined as 43 µM. The compound also had an IC50 in assay [3] above 100 µM. In addition, the IC50 in assay [4] was found to be 3.5 µM.
For `NC(Cc1c(O)noc1-c1ccc(F)cc1)C(=O)O` (single isomer, unassigned; (-)) [Compound 14c, (-)-2-Amino-3-[5-(4-fluorophenyl)-3-hydroxyisoxazol-4-yl]propionic Acid], in assay [1], the Profile entry is “Antagonist” and the Ki amounted to 337 µM.
Take `NC(CCc1c(O)noc1-c1ccc(F)cc1)C(=O)O` (racemic) [Compound 4a, (RS)-2-Amino-4-[5-(4-fluorophenyl)-3-hydroxyisoxazol-4-yl]butanoic Acid]: the 50% inhibitory concentration (IC50) is 0.76 µM in assay [3], 9 µM in assay [2] and above 100 µM in assay [4]. In addition, in assay [2], the Profile entry was “Antagonist”.
For the compound `NC(CCc1c(O)noc1-c1cccs1)C(=O)O` (racemic) [Compound 4c, (RS)-2-Amino-4-[3-hydroxy-5-(2-thienyl)isoxazol-4-yl]butanoic Acid], the values for the 50% inhibitory concentration (IC50) in assay [3], in assay [2] and in assay [4] were 0.19 µM, 2.5 µM and above 100 µM, respectively. Besides, the Profile entry in assay [2] was “Antagonist”.
Turning to `N[C@@H](Cc1c(O)noc1-c1ccccc1)C(=O)O` [Compound 14a, (S)-(+)-2-Amino-3-(3-hydroxy-5-phenylisoxazol-4-yl)propionic acid], in assay [1], the Profile entry is recorded as “Agonist” and the EC50 worked out at 230 µM. Moreover, the IC50 in assay [4] worked out at 5.5 µM.
As to `NC(C(=O)O)c1c(O)noc1-c1cccs1` (racemic) [Compound 2b, (RS)-2-Amino-2-[3-hydroxy-5-(2-thienyl)isoxazol-4-yl]acetic Acid], in assay [2], the Profile entry is on record as “Agonist” and the EC50 is 30 µM.
Consider `NC(Cc1c(O)noc1-c1cccs1)C(=O)O` (single isomer, unassigned; (+)) [Compound 15b, (+)-2-Amino-3-[3-hydroxy-5-(2-thienyl)isoxazol-4-yl]propionic acid], for which, in assay [1], the Profile entry is reported as “Agonist” and the EC50 stood at 2.7 µM.
Turning to `NC(Cc1c(O)noc1-c1cccs1)C(=O)O` (single isomer, unassigned; (-)) [Compound 15a, (-)-2-Amino-3-[3-hydroxy-5-(2-thienyl)isoxazol-4-yl]propionic Acid], the Profile entry in assay [1] is listed as “Antagonist”. This compound also had an IC50 in assay [1] (antagonist) of 300 µM.
In the case of `NC(CCc1c(O)noc1-c1ccsc1)C(=O)O` (racemic) [Compound 4d, (RS)-2-Amino-4-[3-hydroxy-5-(3-thienyl)isoxazol-4-yl]butanoic Acid], the values for the IC50 in assay [3], in assay [2] and in assay [4] were 0.7 µM, 8.6 µM and above 100 µM, respectively. For the same compound, in assay [2], the Profile entry is recorded as “Antagonist”.
